Patent publication US8987195B2 (priority 2012, dated 2015)
Read-outs that look alike come from different tables or passages of the source.

Assays:
[1] = target: HCV NS3/4A protease genotype 1b (Hepatitis C virus genotype 1b, UniProt P26663); assay: HCV NS3/4A protease time-resolved fluorescence (TRF) assay, Ki against genotype 1b; type: biochemical; conditions: IC50 [gt-1b] (nM), NS3/4A genotype 1b, enzyme 0.2 nM
Outline: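 Ki was converted from fitted IC50 using IC50=Ki(1+[S]/KM) and 25 nM substrate. Protease (genotype 1b 0.2 nM, A156T 0.4 nM, 3a 0.025 nM) and compound were pre-mixed 30 min in pH 7.5 HEPES/NaCl/glycerol/DTT buffer. Cleavage then proceeded 2.5 h at room temperature, detected by time-resolved europium fluorescence (340/615 nm).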

HCV genotype 1b replicon = assay: HCV replicon assay, genotype 1b replicon EC50; type: cell-based, Hepatitis C virus; conditions: genotype 1b replicon, read-out: EC50 [gt-1b]
Outline: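 Assay format: compound titration on stable replicon cells, no G418 during treatment, 24 to 48 hours. Lysates were assayed for replicon RNA (hybridization/protection or TaqMan) or luciferase; EC50 fitted to four parameters against DMSO.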

Structure (SMILES) | IC50 ([1]; K+ salt) [nM] | EC50 (HCV genotype 1b replicon; Hepatitis C virus, K+ salt) [nM] | IC50 [1] [nM] | EC50 (HCV genotype 1b replicon; Hepatitis C virus) [nM] | EC50 (HCV genotype 1b replicon) [nM]
Cc1nc2cc(Cl)ccc2c2c1O[C@]1(CC2)C[C@H]2C(=O)N[C@]3(C(=O)NS(=O)(=O)C4(C)CC4)C[C@H]3/C=C\CCCCC[C@H](NC(=O)OCC(C)(C)C)C(=O)N2C1 [Example 235, 2,2-dimethylpropyl [(2R,6S,12Z,13aS,14aR,16aS)-8′-chloro-5′-methyl-14a-{[(1-methylcyclopropyl)sulfonyl]carbamoyl}-5,16-dioxo-1,1′,2′,5,6,7,8,9,10,11,13a,14,14a,15,16,16a-hexadecahydrospiro[cyclopropa[e]pyrrolo[1,2-a][1,4]diazacyclopentadecine-2,3′-pyrano[2,3-c]quinolin]-6-yl]carbamate] | 0.027 | 4.31 | – | – | –
Cc1nc2cc(Cl)ccc2c2c1O[C@]1(CC2)C[C@H]2C(=O)N[C@]3(C(=O)NS(=O)(=O)C4(C)CC4)C[C@H]3/C=C\CCCCC[C@H](NC(=O)OC3(C)CC3)C(=O)N2C1 [Example 236, 1-methylcyclopropyl [(2R,6S,12Z,13aS,14aR,16aS)-8′-chloro-5′-methyl-14a-{[(1-methylcyclopropyl)sulfonyl]carbamoyl}-5,16-dioxo-1,1′,2′,5,6,7,8,9,10,11,13a,14,14a,15,16,16a-hexadecahydrospiro[cyclopropa[e]pyrrolo[1,2-a][1,4]diazacyclopentadecine-2,3′-pyrano[2,3-c]quinolin]-6-yl]carbamate] | 0.056 | 7.24 | – | – | –
Cc1nc2cc(Cl)ccc2c2c1O[C@]1(CC2)C[C@H]2C(=O)N[C@]3(C(=O)NS(=O)(=O)C4(C)CC4)C[C@H]3/C=C\CCCCC[C@H](NC(=O)OC(C)C)C(=O)N2C1 [Example 237, propan-2-yl [(2R,6S,12Z,13aS,14aR,16aS)-8′-chloro-5′-methyl-14a-{[(1-methylcyclopropyl)sulfonyl]carbamoyl}-5,16-dioxo-1,1′,2′,5,6,7,8,9,10,11,13a,14,14a,15,16,16a-hexadecahydrospiro[cyclopropa[e]pyrrolo[1,2-a][1,4]diazacyclopentadecine-2,3′-pyrano[2,3-c]quinolin]-6-yl]carbamate] | – | – | 0.04 | 5.72 | –
Cc1nc2cc(Cl)ccc2c2c1O[C@]1(CC2)C[C@H]2C(=O)N[C@]3(C(=O)NS(=O)(=O)C4(C)CC4)C[C@H]3/C=C\CCCCC[C@H](NC(=O)OC3CCCC3)C(=O)N2C1 [Example 238, cyclopentyl [(2R,6S,12Z,13aS,14aR,16aS)-8′-chloro-5′-methyl-14a-{[(1-methylcyclopropyl)sulfonyl]carbamoyl}-5,16-dioxo-1,1′,2′,5,6,7,8,9,10,11,13a,14,14a,15,16,16a-hexadecahydrospiro[cyclopropa[e]pyrrolo[1,2-a][1,4]diazacyclopentadecine-2,3′-pyrano[2,3-c]quinolin]-6-yl]carbamate] | – | – | 0.02 | 7.72 | –
Cc1nc2cc(Cl)ccc2c2c1O[C@]1(CC2)C[C@H]2C(=O)N[C@]3(C(=O)NS(=O)(=O)C4(C)CC4)C[C@H]3/C=C\CCCCC[C@H](NC(=O)OC3CCC3)C(=O)N2C1 [Example 239, cyclobutyl [(2R,6S,12Z,13aS,14aR,16aS)-8′-chloro-5′-methyl-14a-{[(1-methylcyclopropyl)sulfonyl]carbamoyl}-5,16-dioxo-1,1′,2′,5,6,7,8,9,10,11,13a,14,14a,15,16,16a-hexadecahydrospiro[cyclopropa[e]pyrrolo[1,2-a][1,4]diazacyclopentadecine-2,3′-pyrano[2,3-c]quinolin]-6-yl]carbamate] | – | – | 0.068 | 5.16 | –
Cc1nc2ccccc2c2c1O[C@]1(CC2)C[C@H]2C(=O)N[C@]3(C(=O)NS(=O)(=O)C4(C)CC4)C[C@H]3/C=C\CCCCC[C@H](NC(=O)OC(C)C(F)(F)F)C(=O)N2C1 (stereo partly drawn) [Example 240, 1,1,1-trifluoropropan-2-yl [(2R,6S,12Z,13aS,14aR,16aS)-5′-methyl-14a-{[(1-methylcyclopropyl)sulfonyl]carbamoyl}-5,16-dioxo-1,1′,2′,5,6,7,8,9,10,11,13a,14,14a,15,16,16a-hexadecahydrospiro[cyclopropa[e]pyrrolo[1,2-a][1,4]diazacyclopentadecine-2,3′-pyrano[2,3-c]quinolin]-6-yl]carbamate] | – | – | 0.01 | – | 2.65
Cc1nc2ccccc2c2c1O[C@]1(CC2)C[C@H]2C(=O)N[C@]3(C(=O)NS(=O)(=O)C4(C)CC4)C[C@H]3/C=C\CCCCC[C@H](NC(=O)OC(C)C(F)(F)F)C(=O)N2C1 (stereo partly drawn) [Example 241, 1,1,1-trifluoropropan-2-yl [(2R,6S,12Z,13aS,14aR,16aS)-5′-methyl-14a-{[(1-methylcyclopropyl)sulfonyl]carbamoyl}-5,16-dioxo-1,1′,2′,5,6,7,8,9,10,11,13a,14,14a,15,16,16a-hexadecahydrospiro[cyclopropa[e]pyrrolo[1,2-a][1,4]diazacyclopentadecine-2,3′-pyrano[2,3-c]quinolin]-6-yl]carbamate] | – | – | 0.012 | – | 2.9
COCC(C)(C)OC(=O)N[C@H]1CCCCC/C=C\[C@@H]2C[C@@]2(C(=O)NS(=O)(=O)C2(C)CC2)NC(=O)[C@@H]2C[C@@]3(CN2C1=O)CC(F)(F)c1c(c(C(C)C)nc2ccc(OC)cc12)O3 [Example 242, 1-methoxy-2-methylpropan-2-yl [(2S,6S,12Z,13aS,14aR,16aS)-1′,1′-difluoro-9′-methoxy-14a-{[(1-methylcyclopropyl)sulfonyl]carbamoyl}-5,16-dioxo-5′-(propan-2-yl)-1,1′,2′,5,6,7,8,9,10,11,13a,14,14a,15,16,16a-hexadecahydrospiro[cyclopropa[e]pyrrolo[1,2-a][1,4]diazacyclopentadecine-2,3′-pyrano[2,3-c]quinolin]-6-yl]carbamate] | – | – | 0.022 | 3.38 | –
COc1ccc2nc(C(C)C)c3c(c2c1)CC[C@]1(C[C@H]2C(=O)N[C@]4(C(=O)NS(=O)(=O)C5(C)CC5)C[C@H]4/C=C\CCCCC[C@H](NC(=O)OC(C)(C)CCS(C)(=O)=O)C(=O)N2C1)O3 [Example 243, 2-methyl-4-(methylsulfonyl)butan-2-yl [(2R,6S,12Z,13aS,14aR,16aS)-9′-methoxy-14a-{[(1-methylcyclopropyl)sulfonyl]carbamoyl}-5,16-dioxo-5′-(propan-2-yl)-1,1′,2′,5,6,7,8,9,10,11,13a,14,14a,15,16,16a-hexadecahydrospiro[cyclopropa[e]pyrrolo[1,2-a][1,4]diazacyclopentadecine-2,3′-pyrano[2,3-c]quinolin]-6-yl]carbamate] | 0.012 | 43 | – | – | –
COCCC(C)(C)OC(=O)N[C@H]1CCCCC/C=C\[C@@H]2C[C@@]2(C(=O)NS(=O)(=O)C2(C)CC2)NC(=O)[C@@H]2C[C@@]3(CN2C1=O)CC(F)(F)c1c(c(C(C)C)nc2ccc(OC)cc12)O3 [Example 244, 4-methoxy-2-methylbutan-2-yl [(2S,6S,12Z,13aS,14aR,16aS)-1′,1′-difluoro-9′-methoxy-14a-{[(1-methylcyclopropyl)sulfonyl]carbamoyl}-5,16-dioxo-5′-(propan-2-yl)-1,1′,2′,5,6,7,8,9,10,11,13a,14,14a,15,16,16a-hexadecahydrospiro[cyclopropa[e]pyrrolo[1,2-a][1,4]diazacyclopentadecine-2,3′-pyrano[2,3-c]quinolin]-6-yl]carbamate] | – | – | 0.008 | 2.89 | –
COc1ccc2nc(C(C)C)c3c(c2c1)C(F)(F)C[C@]1(C[C@H]2C(=O)N[C@]4(C(=O)NS(=O)(=O)C5(C)CC5)C[C@H]4/C=C\CCCCC[C@H](NC(=O)OC(C)(C)CCS(C)(=O)=O)C(=O)N2C1)O3 [Example 245, 2-methyl-4-(methylsulfonyl)butan-2-yl [(2S,6S,12Z,13aS,14aR,16aS)-1′,1′-difluoro-9′-methoxy-14a-{[(1-methylcyclopropyl)sulfonyl]carbamoyl}-5,16-dioxo-5′-(propan-2-yl)-1,1′,2′,5,6,7,8,9,10,11,13a,14,14a,15,16,16a-hexadecahydrospiro[cyclopropa[e]pyrrolo[1,2-a][1,4]diazacyclopentadecine-2,3′-pyrano[2,3-c]quinolin]-6-yl]carbamate] | 0.025 | 13.4 | – | – | –
Cc1nc2ccc(OC(F)(F)F)cc2c2c1O[C@]1(CC2)C[C@H]2C(=O)N[C@]3(C(=O)NS(=O)(=O)C4(C)CC4)C[C@H]3/C=C\CCCCC[C@H](NC(=O)N3CCCC3)C(=O)N2C1 [Example 246, (2R,6S,12Z,13aS,14aR,16aS)-5′-methyl-N-[(1-methylcyclopropyl)sulfonyl]-5,16-dioxo-6-[(pyrrolidin-1-ylcarbonyl)amino]-9′-(trifluoromethoxy)-1,1′,2′,6,7,8,9,10,11,13a,14,15,16,16a-tetradecahydrospiro[cyclopropa[e]pyrrolo[1,2-a][1,4]diazacyclopentadecine-2,3′-pyrano[2,3-c]quinoline]-14a(5H)-carboxamide] | – | – | 0.004 | 17.4 | –
COc1ccc2nc(C3CC3)c3c(c2c1)C(F)(F)C[C@]1(C[C@H]2C(=O)N[C@]4(C(=O)NS(=O)(=O)C5(C)CC5)C[C@H]4/C=C\CCCCC[C@H](NC(=O)OCC(C)C)C(=O)N2C1)O3 [Example 248, 2-methylpropyl [(2S,6S,12Z,13aS,14aR,16aS)-5′-cyclopropyl-1′,1′-difluoro-9′-methoxy-14a-{[(1-methylcyclopropyl)sulfonyl]carbamoyl}-5,16-dioxo-1,1′,2′,5,6,7,8,9,10,11,13a,14,14a,15,16,16a-hexadecahydrospiro[cyclopropa[e]pyrrolo[1,2-a][1,4]diazacyclopentadecine-2,3′-pyrano[2,3-c]quinolin]-6-yl]carbamate] | 0.026 | 14.7 | – | – | –
